Values after ≈ are worked out from the molar mass of the structure shown.
Tests used:
[1] = tested on: PSEUDOMONAS AERUGINOSA A5007; assay: In vitro antibacterial activity, agar dilution MIC (BHIA); assay type: cell-based; conditions: BHI agar
[2] = tested on: PSEUDOMONAS CEPACIA 2961; assay: as above; assay type: cell-based; conditions: BHI agar
[3] = tested on: STREPTOCOCCUS BOVIS A5169; assay: as above; assay type: cell-based; conditions: BHI agar
[4] = tested on: MICROCOCCUS LUTEUS ATCC 9341; assay: as above; assay type: cell-based; conditions: BHI agar
[5] = tested on: ENTEROCOCCUS FAECIUM ATCC 8043; assay: as above; assay type: cell-based; conditions: BHI agar
[6] = tested on: PSEUDOMONAS AERUGINOSA K799/61; assay: as above; assay type: cell-based; conditions: BHI agar
[7] = tested on: ESCHERICHIA COLI H560; assay: as above; assay type: cell-based; conditions: BHI agar
From the text: (§1) The MIC results are in μg/ml.

[8] = tested on: ESCHERICHIA COLI DC-2; assay: as above; assay type: cell-based; conditions: BHI agar
From the text: as §1

[9] = tested on: ESCHERICHIA COLI SS; assay: as above; assay type: cell-based; conditions: BHI agar
From the text: as §1

[10] = tested on: ENTEROBACTER AEROGENES ATCC 13048; assay: as above; assay type: cell-based; conditions: BHI agar
[11] = tested on: PSEUDOMONAS AERUGINOSA K799/WT; assay: as above; assay type: cell-based; conditions: BHI agar
[12] = tested on: Stap. Aureus NCTC 10649; assay: Acute mouse protection test; assay type: in vivo; conditions: mice infected intraperitoneally with Stap. Aureus NCTC 10649, dosed at 1 and 5 hours post-infection
[13] = tested on: ESCHERICHIA COLI KNK 437; assay: In vitro antibacterial activity, agar dilution MIC (BHIA); assay type: cell-based; conditions: BHI agar
[14] = tested on: PSEUDOMONAS AERUGINOSA BMH10; assay: as above; assay type: cell-based; conditions: BHI agar
[15] = tested on: PROVIDENCIA STUARTII CMX 640; assay: as above; assay type: cell-based; conditions: BHI agar
[16] = tested on: E. Coli Juhl; assay: Acute mouse protection test; assay type: in vivo; conditions: mice infected intraperitoneally with E. Coli JUHL, dosed at 1 and 5 hours post-infection
[17] = tested on: P. Aeruginosa A5007; assay: Acute mouse protection test; assay type: in vivo; conditions: mice infected intraperitoneally with P. Aeruginosa A5007, dosed at 1 and 5 hours post-infection
[18] = tested on: MICROCOCCUS LUTEUS ATCC 4698; assay: In vitro antibacterial activity, agar dilution MIC (BHIA); assay type: cell-based; conditions: BHI agar
[19] = Aqueous solubility (water and pH 7.4); conditions: the sign > refers to an approximate value, solubility may be within 10% higher
[20] = Conversion of prodrug to parent drug in whole blood at 37° C.; assay type: in vitro ADME; conditions: conversion to parent drug in dog whole blood at 37° C.; seconds; two values = two prodrug peaks
Method: An aqueous solution of prodruq (Z) is spiked into fresh whole blood containing sodium heparin as an anticoagulant. The sample is mixed gently by inversion and placed in a 37° waterbath. At selected time intervals an 0.5 ml aliquot of blood is removed and placed in a chilled 1.5 ml centrifuge tube (ice temperature). Samples are centrifuges at 13,000 rpm for two minutes to separate plasma. An 0.2 ml aliquot of the plasma sample is combined with 0.2 ml internal standard (7-(4-amino-2-methyl-1-pyrrolidinyl)-1-(2,4-difluorophenyl)-6-fluoro-1,4-d ihydro-4-oxo-1,8-naphthyridine-3-carboxylic acid in 0.2 M sodium phosphate pH 7.2 buffer) and 6 mls CH2 Cl2 :EtoH (9:1 by volume). Samples are capped and shaken gently for 10 minutes. Samples are centrifuqes at 2500 rpm for 10 minutes (4° C.). The aqueous layer is aspirated to waste and the organic layer is transferred to a conical centrifuge tube and evaporated to dryness with a stream of dry air and low heat […]. Samples are reconstituted with 0.2 ml mobile phase followed by vortexing. Samples are centrifuqes at 2500 rpm for 10 minutes to separate precipitate. The supernatant is transferred to a WISP vial with plastic insert for HPLC analysis.

[21] = tested on: Strep pyogenes EES 61; assay: Second in vitro test, MIC in Brain Heart Infusion Broth (BHIB)
Method: (§2) The in vitro antibacterial activity of the test compounds was determined by conventional agar dilution procedures. The organisms were grown overnight in brain-heart infusion (BHI) broth (Difco 0037-01-6) at 36° C. Twofold dilutions of the stock solution (2000 mcg/mL) of the test compound were made in BHI agar to obtain a test concentration ranging from 200 to 0.005 mcg/mL. The plate was inoculated with approximately 10^4 organisms. It was then incubated at 36° C. for 18 h.

[22] = tested on: Ps. Aeruginosa A5007; assay: as above
Method: as §2

[23] = tested on: Stap. Aureus CMX 553; assay: as above
Method: as §2

[24] = Plasma level in dog after oral dose; assay type: in vivo; conditions: 10 mg equivalent/kg oral dose, HPLC
From the text: The plasma samples were collected and determined by the HPLC analysis.

[25] = tested on: E. Coli Juhl; assay: Second in vitro test, MIC in Brain Heart Infusion Broth (BHIB)
Method: as §2

[26] = tested on: STREPTOCOCCUS PYOGENES 930 CONST; assay: In vitro antibacterial activity, agar dilution MIC (BHIA); assay type: cell-based; conditions: BHI agar
[27] = tested on: STREPTOCOCCUS PYOGENES 2548 INDUC; assay: as above; assay type: cell-based; conditions: BHI agar
[28] = tested on: STREPTOCOCCUS PYOGENES EES61; assay: as above; assay type: cell-based; conditions: BHI agar
[29] = tested on: ACINETOBACTER SP CMX 669; assay: as above; assay type: cell-based; conditions: BHI agar
[30] = tested on: ESCHERICHIA COLI JUHL; assay: as above; assay type: cell-based; conditions: BHI agar
[31] = tested on: STREPTOCOCCUS AGALACTIAE CMX 508; assay: as above; assay type: cell-based; conditions: BHI agar
[32] = tested on: KLEBSIELLA PNEUMONIAE ATCC 8045; assay: as above; assay type: cell-based; conditions: BHI agar

## CC(N)C(=O)NC(C)C(=O)NC1CCN(c2nc3c(cc2F)c(=O)c(C(=O)O)cn3-c2ccc(F)cc2F)C1 (stereo not drawn) [Example 15]
[1]
  MIC: 100 µg/mL (≈ 183 µM)
[2]
  MIC: 50 µg/mL (≈ 91.5 µM)
[3]; STREPTOCOCCUS BOVIS A5169
  MIC: 50 µg/mL (≈ 91.5 µM)
[4]
  MIC: > 100 µg/mL
[5]; ENTEROCOCCUS FAECIUM ATCC 8043
  MIC: 50 µg/mL (≈ 91.5 µM)
[6]
  MIC: 3.1 µg/mL (≈ 5.67 µM)
[7]
  MIC: 6.2 µg/mL (≈ 11.3 µM)
[8]
  MIC: 100 µg/mL (≈ 183 µM)
[9]
  MIC: .39 µg/mL (≈ 0.714 µM)
[10]
  MIC: 25 µg/mL (≈ 45.7 µM)
[11]
  MIC: 50 µg/mL (≈ 91.5 µM)
[12]
  Oral (ED50): 1.3 mg/kg/day
[13]
  MIC: 50 µg/mL (≈ 91.5 µM)
[14]
  MIC: 100 µg/mL (≈ 183 µM)
[15]
  MIC: 100 µg/mL (≈ 183 µM)
[16]
  Oral (ED50): 2.0 mg/kg/day
[17]
  Oral (ED50): 9.1 mg/kg/day
[18]
  MIC: 100 µg/mL (≈ 183 µM)

## NC1CCN(c2nc3c(cc2F)c(=O)c(C(=O)O)cn3-c2ccc(F)cc2)C1 (stereo not drawn) [compound A, 7-(3-amino-1-pyrrolidinyl)-6-fluoro-1-(4-fluorophenyl)-1,4-dihydro-4-oxo-1 ,8-naphthyridine-3-carboxylic acid, reference compound]
[19]
  Water Solubility: 1.4 mg/mL

## CCC[C@H](NC(=O)[C@@H](N)CCC)C(=O)NC1CCN(c2nc3c(cc2F)c(=O)c(C(=O)O)cn3-c2ccc(F)cc2F)C1.Cl (stereo partly drawn) [Example 3b, 7-(3-L-Norvaline-L-Norvalineamino-1-pyrrolidinyl)-1-(2,4-difluorophenyl)-6-fluoro-1,4-dihydro-4-oxo-1,8-naphthyridine-3-carboxylic acid hydrochloride]
[20]
  Half Life Dog: 1.44 min
[21]
  MIC: 12.5 µg/mL
[22]
  MIC: 50 µg/mL
[12]
  Oral (ED50): 1.8 mg/kg/day
[23]
  MIC: 12.5 µg/mL
[19]
  Water Solubility: > 40 mg/mL
[24]; maximum plasma concentration
  C max (range): 1.9 (1.5-2.2) mcg/ml
[24]; plasma, 0-32 h
  AUC (0-32 h): 10.2 µg·h/mg
[16]
  Oral (ED50): 4.0 mg/kg/day
[25]
  MIC: 25 µg/mL
[17]
  Oral (ED50): 9.1 mg/kg/day

## CCC[C@H](NC(=O)[C@H](C)N)C(=O)NC1CCN(c2nc3c(cc2F)c(=O)c(C(=O)O)cn3-c2ccc(F)cc2F)C1 (stereo partly drawn) [Example 55b, 7-(3-Ala-Nval-amino-1-pyrrolidinyl)-6-fluoro-1-(2,4-difluorophenyl)-1,4-di hydro-4-oxo-1,8-naphthyridine-3-carboxylic acid]
[19]
  Water Solubility: 26 mg/mL

## 7-[3-Norvaline-amino-1-pyrrolidinyl]-1-(2,4-difluoro-phenyl)- 6-fluoro-1,4-dihydro-4-oxo-1,8-naphthyridine-3-carboxylic acid hydrochloride [Example 2b]
[26]
  MIC: .78 µg/mL
[1]
  MIC: 12.5 µg/mL
[27]
  MIC: .39 µg/mL
[2]
  MIC: 50 µg/mL
[3]; STREPTOCOCCUS BOVIS A5169
  MIC: 1.56 µg/mL
[28]; STREPTOCOCCUS PYOGENES EES61
  MIC: 1.56 µg/mL
[4]
  MIC: 25 µg/mL
[5]; ENTEROCOCCUS FAECIUM ATCC 8043
  MIC: .78 µg/mL
[6]
  MIC: .39 µg/mL
[29]
  MIC: 3.1 µg/mL
[7]
  MIC: .78 µg/mL
[8]
  MIC: 12.5 µg/mL
[9]
  MIC: .02 µg/mL
[10]
  MIC: 3.1 µg/mL
[11]
  MIC: 6.2 µg/mL
[30]
  MIC: .78 µg/mL
[13]
  MIC: 6.2 µg/mL
[31]; STREPTOCOCCUS AGALACTIAE CMX 508
  MIC: 1.56 µg/mL
[14]
  MIC: 6.2 µg/mL
[15]
  MIC: 50 µg/mL
[18]
  MIC: 25 µg/mL
[32]
  MIC: .39 µg/mL

## Cl.NCC(=O)N[C@@H](Cc1ccccc1)C(=O)NC1CCN(c2nc3c(cc2F)c(=O)c(C(=O)O)cn3-c2ccc(F)cc2F)C1 (stereo partly drawn) [Example 1b, 7-[(3-Gly-L-Phe-amino)-1-pyrrolidinyl]-1-(2,4-difluorophenyl)-6-fluoro-1,4-dihydro-4-oxo-1,8-naphthyridine-3-carboxyli c acid hydrochloride]
[26]
  MIC: .78 µg/mL
[1]
  MIC: 25 µg/mL
[27]
  MIC: .78 µg/mL
[2]
  MIC: 50 µg/mL
[3]; STR[…] A5169
  MIC: 1.56 µg/mL
[28]; STR[…] EES61
  MIC: 1.56 µg/mL
[4]
  MIC: 6.25 µg/mL
[5]; EN[…] ATCC 8043
  MIC: 1.56 µg/mL
[6]
  MIC: 12.5 µg/mL
[29]
  MIC: 12.5 µg/mL
[7]
  MIC: 1.56 µg/mL
[8]
  MIC: 100 µg/mL
[9]
  MIC: .2 µg/mL
[10]
  MIC: 12.5 µg/mL
[11]
  MIC: 25 µg/mL
[30]
  MIC: 3.12 µg/mL
[12]
  Oral (ED50): 0.7 mg/kg/day
[13]
  MIC: 25 µg/mL
[31]; STR[…] 508
  MIC: 1.56 µg/mL
[14]
  MIC: 25 µg/mL
[15]
  MIC: 100 µg/mL
[16]
  Oral (ED50): 1.8 mg/kg/day
[17]
  Oral (ED50): 27.3 mg/kg/day
[18]
  MIC: .78 µg/mL
[32]
  MIC: 12.5 µg/mL

Source: patent publication US5057523A, “Dipeptide quinolone derivatives” (Abbott Laboratories, priority 1989, dated 1991)
